Experimental data reported in US5639726A, “Peptide mediated enhancement of thrombolysis methods and compositions” (The Regents of the University of Michigan, priority 1994, dated 1997).
“Also recorded” adds a separate entry of the source. Ends that are not written are not given here.

Assays:
PAI-1 [1] = target: T1, PAI-1 (Homo sapiens, UniProt P05121); test: SDS-PAGE of peptide treated PAI-1 reacted with tPA, uPA or trypsin; type: biochemical; conditions: for formation of SDS stable PAI-1:enzyme complexes after peptide treatment: free PAI-1 preincubated with peptide, then tPA (uPA or trypsin); for conversion of PAI-1 to a substrate (cleaved PAI-1): peptide treated PAI-1 reacted with tPA
T1 construct: made in house; host or cells: E. coli (vector pET3a)
T1 sequence (P05121 24-402): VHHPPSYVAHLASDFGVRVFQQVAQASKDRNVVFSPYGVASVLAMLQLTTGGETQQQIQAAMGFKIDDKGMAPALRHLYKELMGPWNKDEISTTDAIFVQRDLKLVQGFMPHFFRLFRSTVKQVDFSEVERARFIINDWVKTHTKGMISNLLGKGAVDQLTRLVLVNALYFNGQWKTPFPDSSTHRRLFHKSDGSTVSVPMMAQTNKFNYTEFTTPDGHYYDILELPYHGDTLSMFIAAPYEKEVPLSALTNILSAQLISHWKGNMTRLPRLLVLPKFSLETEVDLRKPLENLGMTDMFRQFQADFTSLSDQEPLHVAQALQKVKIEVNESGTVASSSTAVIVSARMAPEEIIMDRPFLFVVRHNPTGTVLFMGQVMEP
Description: (§1) SDS-polyacrylamide gel electrophoresis (SDS-PAGE) under nonreducing conditions was carried out according to the method of Laemmli (Laemmli, 1970) on 10% gels. Native gel electrophoresis with 5% gels was carried out by omitting SDS and boiling from Laemmli's method. All gels were stained with Coomassie brilliant blue. Gels of PAI-peptide samples were scanned with an LKB Ultroscan XL Laser Densitometer to determine the relative amounts of peptide-annealed and latent PAI.
PAI that had been incubated with peptide was tested for inhibitory and substrate activity by incubating with tPA, uPA or trypsin. SDS-PAGE was then performed on the samples. Free PAI formed a complex band when incubated with any of the enzymes, as well as a faint band indicative of cleaved PAI. Because substoichiometric amounts of enzyme were used there was also a band for free PAI. When PAI was incubated with any of the peptides, the electrophoretic mobility was the same as that of free PAI after denaturing with SDS. When PAI was annealed to any of 8-mers, then allowed to react with tPA, uPA or trypsin, no PAI-enzyme complex band was seen.
SDS-PAGE was performed using a PhastSystem (Pharmacia), Upssala, Sweden, according to manufacturer's instructions. Gels were stained with Coomassie Brilliant Blue.
SDS-PAGE was performed to determine the effect of Thr-Val-Ala-Ser-Ser-Ser-Thr-Ala-Val-Ile-Val-Ser-Ala-Arg (SEQ ID NO: 1) on t-PA:PAI-1 complex formation in the presence and absence of vitronectin.

PAI-1 [2] = target: T1, PAI-1; test: Native gel electrophoresis of PAI incubated with peptide; type: binding
Description: as §1
Four of the five peptides have a net negative charge due to glutamic acid residues and the free carboxy terminus (FIG. 1). The wtPAI 8-mer has a net -1 charge (the carboxy terminus). The V→E PAI 8-mer (SEQ ID NO:3) and consensus 8-mer (SEQ ID NO:4) each have a -2 charge (the glutamic acid residue and the carboxyl group). […] The PAI 14-mer (SEQ ID NO:1) is uncharged since it contains no glutamic acid and the arginine and carboxyl groups neutralize each other. Because of the negative charges of 4 of the peptides, native gels of PAI annealed to these peptides should show a band which migrates more quickly than the band representative of free active PAI. Similarly, if one of these peptides is incubated with PAI but fails to form a strong interaction with PAI, native gels should show a band which migrates identically to the free PAI.

platelet-rich clots = test: In vitro clot lysis assay, platelet-rich clots; type: biochemical, human
Description: Blood samples were collected by peripheral venipuncture from normal subjects into acid-citrate-dextrose anticoagulant (0.8% w/v citric acid, 2.2% trisodium citrate, 2.45% dextrose) at a ratio of 6 volumes of blood to 1 volume of anticoagulant. Donors had not consumed aspirin for at least 7 days prior to phlebotomy. Washed platelets were prepared by repeated centrifugation as previously described (Fay et al., 1994), then resuspended in Tyrode's buffer (137 mM NACl, 2.68 mM KCl, 2 mM CaCl2, 1 mM MgCl2, 0.36 mM NaH2 PO4, 11.9 mM NaHCO3, 5 mM HEPES, 0.1% glucose, 0.35% bovine serum albumin, pH 7.35). Clot lysis assays were performed as previously described (Fay et al., 1994). […] The fluorescence of this dilution was measured and % clot lysis was calculated, as previously described (Fay et al., 1994). […] The capacity of P1-P14 peptide to accelerate fibrinolysis in vitro, both in the absence and presence of platelets was also evaluated. […] After 30 min at 37° C., fibrinolysis was initiated by the addition of t-PA (20 nM), and % clot lysis was determined 60 min later. […]

PAI-1 [3] = target: T1, PAI-1; test: Thermal denaturation of peptide treated PAI-1; conditions: FIG. 4
Excerpt: Circular dichroism (CD) spectra analysis (Strandberg et al., 1991) indicated similar secondary structural components for the PAI-1 mutants, as well as active and latent wild-type PAI-1.
(Lawrence et al., 1994c). […] As expected, active PAI-1 was much less thermally stable than latent PAI-1 or elastase cleaved PAI-1 (FIG. 4). […] This is precisely the behavior expected for a serpin with a peptide intercalated into β-sheet A (Carrell et al., 1991; Schulze et al., 1990; Bjork et al., 1992). […] If the 14 residue peptide were intercalated into β-sheet A, then the added length of the peptide bound to sheet A would be expected to increase the stability not decrease it.
Upon completion of peptide annealing, the incubation solution contained a mixture of annealed PAI-peptide, latent PAI, and excess peptide. For circular dichroism (CD) spectra, melting curves, and mass spectroscopy determinations, the excess peptide was removed. This was done by loading the mixture on a heparin-sepharose column which had been equilibrated with 0.05M sodium phosphate, 0.15M NaCl, 1 mM EDTA, 0.01% TWEEN-80, pH 6.6. Washing the column with this buffer removed the excess peptide. The PAI-peptide and latent PAI were eluted together with 0.05M Sodium phosphate, 1M NaCl, 1 mM EDTA, 0.01% TWEEN-80, pH 6.6. […] The absorbance at 280 nm was used to determine the final protein concentration. […]

Substance: Ac-TVASSSTAVIVSAR [SEQ ID NO: 1, Thr-Val-Ala-Ser-Ser-Ser-Thr-Ala-Val-Ile-Val-Ser-Ala-Arg]
- formation of SDS stable PAI-1:enzyme complexes after peptide treatment (PAI-1 [1]): no t-PA:PAI-1 complex formation was observed
- formation of SDS stable PAI-1:enzyme complexes after peptide treatment (PAI-1 [1]; listed as P1-P14 peptide): inhibited complex formation
- PAI forms on SDS-PAGE (PAI-1 [1]; high peptide concentration): almost all of the PAI is in the latent conformation
- PAI forms on SDS-PAGE (PAI-1 [1]; low peptide concentration): a significant substrate band formed along with the dominant latent PAI band
- conversion of PAI-1 to a substrate (cleaved PAI-1) (PAI-1 [1]): did not convert PAI-1 to a substrate form; also recorded: substrate form of PAI-1 was not generated
- conversion of PAI-1 to a substrate (cleaved PAI-1) (PAI-1 [1]; listed as wt14-mer): did not behave as a substrate
- electrophoretic mobility of active PAI incubated with peptide, native gel (PAI-1 [2]): a band at the same position as free active PAI
- tPA induced platelet rich clot lysis (platelet-rich clots; 70 μM peptide): significant enhancement
- lysis of platelet-rich clots at 90 minutes (platelet-rich clots; 2.5×10^8 platelets/mL, t-PA 75 pM, 8±3% without peptide): 41±12%
- thermal stability of peptide treated PAI-1 (PAI-1 [3]): very similar to latent PAI-1
